Key:
RhlR [1] = biological target: T1, RhlR (Pseudomonas aeruginosa, UniProt P54292); test: E. coli RhlR reporter; type: cell-based; details: E. coli RhlR reporter strain; for EC50: dose-response; for Max. RhlR Activation: efficacy
RhlR [2] = biological target: T1, RhlR; test: P. aeruginosa PAO-JP2 RhlR reporter; type: cell-based; details: for EC50 / Max. RhlR Activation: P. aeruginosa RhlR reporter strain; for EC50: dose-response; for Max. RhlR Activation: efficacy

T1 sequence (P54292 whole entry): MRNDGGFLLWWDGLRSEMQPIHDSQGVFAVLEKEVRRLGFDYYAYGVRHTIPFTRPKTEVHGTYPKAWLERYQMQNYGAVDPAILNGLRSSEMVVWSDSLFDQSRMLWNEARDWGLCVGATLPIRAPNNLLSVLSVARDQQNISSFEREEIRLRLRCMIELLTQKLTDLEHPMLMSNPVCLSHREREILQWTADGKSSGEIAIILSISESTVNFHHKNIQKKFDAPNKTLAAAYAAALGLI

| Compound | EC50 (RhlR [1]) [µM] | Max. RhlR Activation (RhlR [1]) [%] | EC50 (RhlR [2]) [µM] | Max. RhlR Activation (RhlR [2]) [%] | fold lower potency in P. aeruginosa relative to E. coli (RhlR [2]; ratio of EC50 values in the two RhlR reporters) |
| --- | --- | --- | --- | --- | --- |
| CCCC(=O)N[C@H]1CCOC1=O [BHL, N-butyryl HL] | 8.95 | 100 | 8.08 | 100 | – |
| CC(C)CC(=O)N[C@H]1CCOC1=O [Compound 7, isovaleryl HL] | 1.02 | 110 | 1.42 | 94 | – |
| O=C(NC1CCOC1=O)C1CCC1 (centres unmarked) [Compound 17, cyclobutyl HL] | 1.78 | 100 | 1.41 | 96 | – |
| CC(C)CC(=O)NC1CCSC1=O (centres unmarked) [Compound 37, isovaryl homocysteine thiolactone] | 0.463 | 93 | 2.58 | 91 | ~ 5 fold |

— paper PMC6402343 (ACS chemical biology, 2019)
